Experimental data: US10583206B2, “Radioactive probe for detecting hydrogen sulfide” (KYUNGPOOK NATIONAL UNIVERSITY INDUSTRY-ACADEMIC COOPERATION …, priority 2015, dated 2020)

Assays:
[1] = Test of hydrogen sulfide detection sensitivity (% decomplexation with NaHS, radio-TLC); format: physicochemical; conditions: for % decomplexation: 37° C. for 15 minutes
Protocol: To measure hydrogen sulfide detection sensitivity of the ^64Cu-labeled complex compound according to the present disclosure, the following experiment was performed.
About 45 μCi-55 μCi of ^64Cu-labeled complex compound (250 μL of triple distilled water) was mixed with various concentrations of NaHS solution (250 µL of triple distilled water), and stirred at 37° C. for 15 minutes (a total volume used in the reaction was equally 500 μL). After completion of the reaction, the resulting products were strongly stirred to mix appropriately.
Formation of copper sulfide (^64CuS) was confirmed by quantification of % decomplexation by using a radio-TLC scanner, and results are shown in the following Tables 2 and 3.

[2] = Test of hydrogen sulfide detection over time (^64CuS formation, radio-TLC); format: physicochemical; parameters: unit not given here; conditions: 100 μM NaHS, 37° C.
Protocol: To examine reactivity of the ^64Cu-labeled complex compound according to the present disclosure over time, the following experiment was performed.
A detailed experimental method is as follows.
About 45 μCi-50 μCi of ^64Cu-labeled complex compound (250 μL of triple distilled water) was mixed with 100 μM of NaHS solution ([…] of triple distilled water), and stirred at 37° C. for 15 minutes. Formation of copper sulfide (^64CuS) was quantified by using a radio-TLC scanner.

[3] = Hydrogen sulfide selectivity test: decomplexation by Hcys; format: physicochemical; conditions: 100 μM or L-Hcys (10 mM), 37° C. for 15 minutes
Protocol: (§1) In addition to hydrogen sulfide, many different anions, radicals, etc. exist in the body. Therefore, to examine selective reactivity of the ^64Cu-labeled complex compound according to the present disclosure for sulfide ions, the following experiment was performed.
(§2) About 45 μCi-55 μCi of the ^64Cu-labeled complex compound (250 μL of triple distilled water) was mixed with 100 μM of various anion solutions (250 μL of triple distilled water) including biothiol, and stirred at 37° C. for 15 minutes.
(§3) Formation of copper sulfide (^64CuS) was quantified by using a radio-TLC scanner.
(§4) Various biothiol or salt solutions were prepared by dissolving the compounds in triple distilled water.
(§5) In Table, concentrations of all biothiols and other competitive materials are 100 μM. Further, specific concentrations of biothiols, anions, and oxidants used in Table are as follows: [L-Cys (1 mM); L-Hcys (10 mM); GSH (10 mM); DL-dithiothretitol (DTT, 100 μM); L-ascorbic acid (L-AsA, 10 mM); 2-mercaptoethanol (2-ME, 10 mM); NaCl (10 mm); KI (1 mM); Na2S2O3 (1 mM); Na2S2O5 (1 mM); NaOAc (1 mM); H2O2 ([…]); NaClO4 (100 μM); NaHCO3 (100 μM); NaNO2 ([…]); NaN3 (100 μM); ATB 337 (100 μM); diallyl trisulphide (100 μM)].

[4] = Hydrogen sulfide selectivity test: decomplexation by NaCl; format: physicochemical; conditions: 100 μM or NaCl (10 mm), 37° C. for 15 minutes
Protocol: as §1, §2, §3, §4, §5

[5] = Hydrogen sulfide selectivity test: decomplexation by NaHCO3; format: physicochemical; conditions: NaHCO3 (100 μM); 37° C. for 15 minutes
Protocol: as §1, §2, §3, §4, §5

[6] = Test of hydrogen sulfide-specific imaging (matrigel/NaHS sites on backs of rats, optical imaging); format: in vivo
Protocol: In order to examine whether the ^64Cu-labeled complex compounds according to the present disclosure are able to selectively detect in vivo hydrogen sulfide, different materials were injected into the backs of rats, and then each ^64Cu-labeled complex compound according to the present disclosure was injected via the tail, and then selective imaging was examined by optical imaging.
Referring to FIG. 4, at the beginning of the first experiment, matrigel alone, matrigel+1 mg NaCl, matrigel+0.5 mg NaHS, and matrigel+0.05 mg NaHS were injected into four sites on the backs of rats, respectively. 1.8 mCi of the ^64Cu-labeled complex compound according to Example 1 was injected via the tails of rats, immediately followed by optical imaging.

[7] = tested on: Arthritis model; test: Imaging in arthritis model; format: in vivo, DBA/1J mice
Protocol: An arthritis inducer, bovine type II collagen was intradermally injected into the tails of DBA/1J mice twice, and 5 weeks later (about 13-week-old), the mice were used in imaging tests. Arthritis degree of the paw was quantified by scoring.
Nuclear medicine imaging was measured by using an Inveon PET/CT system of Siemens Healthcare, and optical imaging was measured by using IVIS spectrum CT equipment. Cherenkov radiation emitted from ^64Cu was measured by using a highly sensitive CCD (charge-coupled device) camera.
Imaging was measured for 1 minute to 5 minutes, and a radiation dose was about 50 μCi to 2000 μCi, and photographs were variously taken as needed, such as immediately after first injection, at 1 hour, 4 hours, and 24 hours later.

[8] = tested on: EMT6 tumor; test: Imaging study in EMT6 tumor model (PET); format: in vivo, BALB/c female mouse
From the text: To prepare an EMT6 tumor model, the number of cells was counted using a haemacytometer, and 2×10^5 cells were subcutaneously injected into the right flank and left shoulder region of BALB/c female mouse. About 2˜3 weeks later, when formation of about 1 cm of tumor was observed, the mice were used in subsequent experiments.
(§6) PET images were obtained after injecting the ^64Cu-labeled complex compound of Example 1 into the prepared rat model having EMT6 tumor and rat model having CT26 tumor.

[9] = tested on: CT26 tumor; test: Imaging study in CT26 tumor model (PET); format: in vivo, BALB/c mouse
From the text: To prepare a CT26 tumor model, the number of cells was counted using a haemacytometer, and 5×10^6 cells were subcutaneously injected into the right flank of BALB/c mouse. About 10 days later, when formation of about 1 cm of tumor was observed, the mice were used in subsequent experiments.
as §6

[10] = Imaging study of hydrogen sulfide in normal rat (PET); format: in vivo; conditions: PET image before excision of the tongue
From the text: PET images were obtained after injecting the ^64Cu-labeled complex compound of Example 1 into a normal rat, and PET images were obtained again after excision of the tongue thereof. […] However, after excision (B), the uptake was decreased in the same site. […] (C) is a photograph taken before imaging the tongue after excision.

[11] = tested on: Sepsis model; test: Imaging study in sepsis model (PET); format: in vivo, ICR mice
From the text: After the lower abdominal region of ICR mice was opened, a small puncture in the appendix was made by using a syringe needle to prepare an acute sepsis model.
PET images were obtained after injecting the ^64Cu-labeled complex compound of Example 20 into the prepared rat model having sepsis.

Structure (SMILES)	% decomplexation ([1]; NaHS 0 μM) [%]	% decomplexation ([1]; NaHS 1 μM) [%]	% decomplexation ([1]; NaHS 10 μM) [%]	% decomplexation ([1]; NaHS 15 μM) [%]	% decomplexation ([1]; NaHS 20 μM) [%]	% decomplexation ([1]; NaHS 50 μM) [%]	% decomplexation ([1]; NaHS 100 μM) [%]	Formation of copper sulfide (^64CuS) over time ([2]; 10 sec)	Formation of copper sulfide (^64CuS) over time ([2]; 30 sec)	Formation of copper sulfide (^64CuS) over time ([2]; 60 sec)	Formation of copper sulfide (^64CuS) over time ([2]; 5 min)	Formation of copper sulfide (^64CuS) over time ([2]; 10 min)	Formation of copper sulfide (^64CuS) over time ([2]; 15 min)	Decomplexation [%] [3] [%]	Decomplexation [%] [4] [%]	Decomplexation [%] [5] [%]	further results
C1C[N]2CC[N]3CC[N]4CC[N]1[64Cu]243 [Example 1, ^64Cu-labeled cyclen]	0	3	11	63	95	100	100	13	17	21	100	100	100	1.4 ± 0.4	0.2 ± 0.0	0.6 ± 0.3	sensitivity for hydrogen sulfide (lowest detectable concentration), in words ([1]; comparison among tested complexes): most excellent sensitivity for hydrogen sulfide; optical imaging signals at four injected sites (matrigel alone, +NaCl, +0.5 mg NaHS, +0.05 mg NaHS) ([6]; 1.8 mCi via the tails of rats, imaging immediately): signals were detected only in the lower two sites injected with NaHS; optical imaging signals at four injected sites (matrigel alone, +NaCl, +0.5 mg NaHS, +0.05 mg NaHS) ([6]; after 4 hours): signals were still detected only in the lower two sites; uptake in the joint region [7]: selective uptake in the joint region; uptake in the tumor region versus background [8]: higher uptake was observed in the tumor region; uptake in the tumor region versus background [9]: higher uptake was observed in the tumor region; uptake in the tongue [10]: high uptake was observed in the tongue
C1C[N]2CC[N]3CC[N]1[64Cu]23 [Example 20, ^64Cu-labeled TACN]	0	0	9	11	13.5	24.6	54.4	0	0	5	13	60	60	1.1 ± 0.5	0.5 ± 0.0	0.6 ± 0.4	uptake in the lung [11]: increased uptake was observed in the lung; uptake throughout the body [11]: uptake was increased throughout the body
